Results published in publication PMC10821532, “Sex and Cross-Sex Testosterone Treatment Alters Gamma-Hydroxybutyrate Acid Toxicokinetics and Toxicodynamics in Rats” (Pharmaceutics, 2024).
Where two headings read alike, the source gives them in different places.

Assay: GHB toxicokinetic study, i.v. bolus, plasma and urine up to 8 h, noncompartmental analysis
Type: in vivo, Sprague Dawley rats
Conditions: for clearance / CL renal: Sprague Dawley, rat, iv; for CL renal: read-out: CLR - Renal clearance
Method: Male and female Sprague Dawley (SD) rats, ovariectomized (OVX) females, and castrated (CST) males were obtained from Charles River (Wilmington, MA, USA) at 8 weeks of age. The animals were housed under controlled temperature and humidity with an artificial 12 h light/dark cycle, and food and water were available ad libitum. The animals were acclimatized for at least one week before experiments. Hormone treatment was conducted by implanting OVX female and CST male rats subcutaneously with 60-day release pellets containing 7.5 mg testosterone or corresponding placebo pellets (Innovative Research of America) at 10 weeks of age. After 21 days of hormone exposure, rats were utilized in toxicokinetic studies. Age-matched male and female rats were used as control groups. Female rats in the estrus stage were selected for the study. Estrus cycle stages of female rats were monitored daily by vaginal lavage smear, as described in previously published literature. The Institutional Animal Care and Use Committee (IACUC) at the University of the Pacific approved all experiments.
Jugular vein cannulas were surgically implanted under anesthesia with ketamine/xylazine. Cannulas were flushed daily with heparinized saline to maintain patency. Rats were allowed a minimum of 72 h for recovery from surgery before the experiments were conducted. GHB was administered intravenously as a 1000 mg/kg i.v. bolus or 1500 mg/kg iv bolus with or without AR-C155858 (1 mg/kg i.v. bolus) via a jugular vein cannula to the animals at 13 weeks of age (N = 5–7 per group). Rats were dosed in metabolic cages with ad libitum access to water to allow for the concurrent collection of blood and urine samples for up to 8 h. GHB was administered as a 300 mg/mL solution in sterile water, and the time of administration was considered as time 0. AR-C155858 was administered as a 1 mg/mL solution in 10% cyclodextrin in normal saline 5 min after GHB administration. Blood samples (200 μL) were taken from the jugular vein cannula at different time points: 5, 10, 20, 30, 60, 90, 120, 180, 240, 270, 300, and 330 min for 1000 mg/kg and 10, 30, 60, 90, 120, 180, 240, 270, 300, 330, 360, and 390/480 min for 1500 mg/kg bolus with or without AR-C155858. Plasma samples were separated by centrifugation and stored at −20 °C. Urine samples were collected at 120, 240, and 360 min for 1000 mg/kg and 120, 240, and 390/480 min for 1500 mg/kg bolus with or without AR-C155858 post-dose; the total urine volume was determined, and the samples were stored at −20 °C.
GHB in plasma and urine were quantified using a validated liquid chromatography/tandem mass spectrometry (LC/MS/MS) assay that was described previously. Briefly, for the preparation of plasma standards and quality controls (QCs), 5 μL of GHB-d6 and 5 μL of standard stock solution or QC stock solution were added to 45 μL of blank plasma. For each unknown plasma sample, 5 μL of GHB-d6 was added to 50 μL of plasma. Protein precipitation was then performed by the addition of 800 μL of acetonitrile with 0.1% formic acid, followed by centrifugation at 10,000 rpm for 20 min. 750 μL of the supernatant was transferred to a clean disposable glass tube and evaporated using a MultiVap Nitrogen Evaporator (Organomation, Berlin, MA, USA) under a nitrogen stream. Dried samples were reconstituted in 250 μL of 95:5 double-distilled water—acetonitrile with 0.1% acetic acid. For urine standards and QCs, 25 μL of blank urine, 5 μL of standard or QC stock solution, 5 μL of GHB-d6, and 465 μL of double-distilled water were mixed. For unknown urine samples, 25 μL of the sample was added to 5 μL of GHB-d6 and 470 μL of double-distilled water. The same LC/MS/MS method was used for GHB plasma and urine analyses. LC/MS/MS equipment consisted of an Agilent 1200 series UPLC consisting of an online degasser, binary pump, and autosampler (Agilent Technologies, Santa Clara, CA, USA) connected to a Agilent 6460 Triple Quad Mass Spectrometer. […]

[1] = 1000 mg/kg GHB iv, OVX testosterone rats
[2] = 1000 mg/kg GHB iv, intact female (estrus) rats
[3] = 1000 mg/kg GHB iv, intact male rats
[4] = 1500 mg/kg GHB + 1mg/kg AR-C 155858 iv, CST testosterone placebo rats
[5] = 1500 mg/kg GHB + 1mg/kg AR-C 155858 iv, CST testosterone rats
[6] = 1500 mg/kg GHB + 1mg/kg AR-C 155858 iv, OVX testosterone placebo rats
[7] = 1500 mg/kg GHB + 1mg/kg AR-C 155858 iv, OVX testosterone rats
[8] = 1500 mg/kg GHB + 1mg/kg AR-C 155858 iv, intact female (estrus) rats
[9] = 1500 mg/kg GHB + 1mg/kg AR-C 155858 iv, intact male rats
[10] = 1500 mg/kg GHB iv, CST testosterone placebo rats
[11] = 1500 mg/kg GHB iv, CST testosterone rats
[12] = 1500 mg/kg GHB iv, OVX testosterone placebo rats
[13] = 1500 mg/kg GHB iv, OVX testosterone rats
[14] = 1500 mg/kg GHB iv, intact female (estrus) rats
[15] = 1500 mg/kg GHB iv, intact male rats

SMILES: O=C(O)CCCO [GHB, Γ-hydroxybutyric acid]
- AUC - Area under the curve of plasma concentration versus time profile (1000 mg/kg GHB iv, CST testosterone placebo rats): 222 ± 40.7 mg·min/mL
- AUC - Area under the curve of plasma concentration versus time profile (1000 mg/kg GHB iv, CST testosterone rats): 197 ± 35.5 mg·min/mL
- AUC - Area under the curve of plasma concentration versus time profile (1000 mg/kg GHB iv, OVX testosterone placebo rats): 181 ± 10.6 mg·min/mL
- AUC - Area under the curve of plasma concentration versus time profile [1]: 169 ± 25.9 mg·min/mL
- CL - Total clearance [1]: 6.0 ± 0.8 mL/min/kg
- AUC - Area under the curve of plasma concentration versus time profile [2]: 150 ± 16.6 mg·min/mL
- fe – The fraction of drug eliminated from urine [2]: 0.39 ± 0.07
- AUC - Area under the curve of plasma concentration versus time profile [3]: 224 ± 39.8 mg·min/mL
- fe – The fraction of drug eliminated from urine [3]: 0.48 ± 0.06
- AUC [4]: 195 ± 29.6 mg·min/mL
- fe (fraction of drug eliminated in urine) [4]: 0.69 ± 0.13
- AUC [5]: 207 ± 40.4 mg·min/mL
- fe (fraction of drug eliminated in urine) [5]: 0.74 ± 0.03
- AUC [6]: 162 ± 34.8 mg·min/mL
- fe (fraction of drug eliminated in urine) [6]: 0.73 ± 0.05
- AUC [7]: 163 ± 24.9 mg·min/mL
- fe (fraction of drug eliminated in urine) [7]: 0.75 ± 0.09
- AUC [8]: 184 ± 36.3 mg·min/mL
- fe (fraction of drug eliminated in urine) [8]: 0.73 ± 0.07
- AUC [9]: 185 ± 13.2 mg·min/mL
- fe (fraction of drug eliminated in urine) [9]: 0.74 ± 0.03
- AUC [10]: 309 ± 23.8 mg·min/mL
- fe (fraction of drug eliminated in urine) [10]: 0.60 ± 0.05
- AUC [11]: 496 ± 97.6 mg·min/mL
- fe (fraction of drug eliminated in urine) [11]: 0.44 ± 0.09
- AUC [12]: 271 ± 47.0 mg·min/mL
- fe (fraction of drug eliminated in urine) [12]: 0.62 ± 0.08
- AUC [13]: 290 ± 122.7 mg·min/mL
- CL (total clearance) [13]: 6.1 ± 2.4 mL/min/kg
- fe (fraction of drug eliminated in urine) [13]: 0.41 ± 0.09
- AUC [14]: 336 ± 78.8 mg·min/mL
- fe (fraction of drug eliminated in urine) [14]: 0.78 ± 0.12
- AUC [15]: 343 ± 117.8 mg·min/mL
- fe (fraction of drug eliminated in urine) [15]: 0.87 ± 0.07
- clearance (both sexes, plasma, 1500 mg/kg, 1500 mg/kg GHB iv, animal groups other than testosterone-treated OVX rats, read-out: Metabolic clearance, other animal groups): < 2.2 mL/min/kg
- CL renal (female, plasma and urine, 1000 mg/kg, 1000 mg/kg GHB iv, OVX testosterone placebo rats): 2.4 ± 0.1 mL/min/kg
- clearance (female, plasma and urine, 1000 mg/kg, 1000 mg/kg GHB iv, OVX testosterone placebo rats, read-out: CLm – Metabolic clearance): 3.1 ± 0.3 mL/min/kg
- CL renal (female, plasma and urine, 1000 mg/kg, 1000 mg/kg GHB iv, OVX testosterone rats): 2.4 ± 0.7 mL/min/kg
- clearance (female, plasma and urine, 1000 mg/kg, 1000 mg/kg GHB iv, OVX testosterone rats, read-out: CLm – Metabolic clearance): 3.6 ± 0.6 mL/min/kg
- CL renal (female, plasma and urine, 1000 mg/kg, 1000 mg/kg GHB iv, intact female (estrus) rats): 2.6 ± 0.5 mL/min/kg
